# Key:
# 5-HT3 receptor = system: 5-HT3 receptor; parameters: method as in PMID 7620711; details: electrophysiology, cited from earlier work
# Sprague Dawley rats = test: Forced swim test (FST) in rats; type: in vivo, rat
# Procedure: The test was carried out according to the method described previously [10]. On day one of the experiment, the animals were individually placed in plexiglass cylinders (40 cm in height, 18 cm in diameter), containing 25 cm of water maintained at 24–25 °C for a 15-min habituation period. After the rats were removed from the water, they were again placed in their home cages. On the second day, the rats were again placed in the cylinders, and the total duration of immobility was measured for a 5-min test period. Zn (1 or 2 mg Zn/ kg, given as Zn hydroaspartate) and 8-OH-DPAT (0.1 or 0.3 mg/kg) were administered alone or jointly 30 min before the test. WAY-100635 (0.1 mg/kg) was administered 15 min before the Zn treatment.
# [1] = system: 5-HT1A autoreceptor KO mice; test: Forced swim test (FST) in wild-type and 5-HT1A autoreceptor KO mice; type: in vivo, mouse; details: Zn 5 mg/kg 30 min before FST
# Description: A conditional knockout approach was used to eliminate the 5-HT1AR in the raphe nuclei in adult mice. To create the conditional 5-HT1AR knockout mice, a TPH2-Cre-ER^T2 mouse line was crossed with a flx-5-HT1A-YFP mouse line. The TPH2-Cre-ER^T2 confers specificity such that only serotonin neurons, which express tryptophan hydroxylase 2 (TPH2), can express Cre recombinase to knockout the 5-HT1AR gene and allow for […] expression. Once the mice reached adulthood (approximately 5–6 postnatal weeks), tamoxifen (180 mg/kg) was injected i.p. every day for five consecutive days (the tamoxifen binds to the ER^T2 domain and enables Cre to enter the nucleus where it can excise the 5-HT1AR gene, allowing for YFP expression as a marker of recombination). The mice were then left undisturbed for at least 14 days to allow for recombination and the turnover of endogenous 5-HT1ARs.
# The behaviour of the mice in the water was recorded using a video camera. The test was performed under red lighting. The cylinder was filled with almost 4 l of water, to a depth that exceeded the distance to which the tail could extend, so the mouse could not balance on its tail at the bottom of the cylinder. […] The mice were placed in the individual glass cylinder (22 cm diameter×37 cm high) for a standard 6-min test; however, the total duration of immobility from the last 4 min of the test was analysed. […]
# [2] = target: T1, human 5-HT1AR stably expressed in HEK293 cells (Homo sapiens, UniProt P08908); test: Competition and competition-like (Zn titration) binding against 2.5 nM [3H]-8-OH-DPAT; details: 2.5 nM radioligand
# T1 construct: The full-length human 5HTR1A complementary DNA (cDNA); membranes prepared from the cells
# T1 sequence (P08908 1-422): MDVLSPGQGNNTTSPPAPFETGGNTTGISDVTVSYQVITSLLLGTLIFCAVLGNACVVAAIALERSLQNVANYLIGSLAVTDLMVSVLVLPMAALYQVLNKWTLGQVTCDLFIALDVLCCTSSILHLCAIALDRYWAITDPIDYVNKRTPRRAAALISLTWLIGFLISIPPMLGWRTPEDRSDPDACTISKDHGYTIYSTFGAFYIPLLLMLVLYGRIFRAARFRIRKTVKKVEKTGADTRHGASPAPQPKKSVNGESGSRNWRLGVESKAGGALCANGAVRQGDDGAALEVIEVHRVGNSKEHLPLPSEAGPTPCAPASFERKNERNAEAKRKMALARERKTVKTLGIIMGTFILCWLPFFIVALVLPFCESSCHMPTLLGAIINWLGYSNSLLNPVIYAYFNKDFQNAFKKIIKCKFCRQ
# Procedure: (§1) The full-length human 5HTR1A complementary DNA (cDNA), which was cloned into the mammalian expression vector pcDNA3.1(+), was obtained from the Missouri S&T cDNA Resource Center (www.cdna.org). The receptor cDNA was stably transfected into human embryonic kidney cells (HEK293, ATCC) with the use of Lipofectamine 2000 (Invitrogen).
# (§2) Cell pellets were thawed and homogenized in 20 volumes of 50 mM Tris–HCl buffer (pH 7.7) containing 0.1 mM EDTA and 10 mM MgCl2, using an Ultra Turrax tissue homogenizer. The pellets were then centrifuged twice at 35,000g for 20 min at 4 °C, with incubation for 15 min at 37 °C in between centrifugations. Membranes were aliquoted in tubes. Membrane protein concentrations were determined using the Pierce™ Coomassie (Bradford) Protein Assay Kit, with bovine serum albumin (BSA) as a standard.
# The incubation buffer consisted of 50 mM Tris–HCl (pH 7.7), 10 mM MgCl2, 10 mM pargyline and 0.1 % ascorbic acid. Radioligand binding assays were performed by incubating 30 μg of protein of the membrane suspension in 96-well microtitre plates for 60 min at room temperature with shaking, in a total volume of 200 μl. The binding reactions were stopped by filtration through GF/C Unifilter plates using a harvester (PerkinElmer). […] Radioactivity was measured using a MicroBeta TriLux counter (PerkinElmer).
# [3] = target: T1, human 5-HT1AR stably expressed in HEK293 cells; test: Association and dissociation kinetic assays of [3H]-8-OH-DPAT; type: binding
# Procedure: Non-specific binding was defined by the addition of 10 μM serotonin. The amount of radioligand bound to the receptor was measured at different time intervals during a total incubation of 60 min in the absence or presence of 10 and 500 μM ZnCl2. For the dissociation assay, after incubating the membranes with radioligand for 60 min to achieve equilibrium, serotonin (10 μM), either alone or together with 10 or 500 μM of ZnCl2, was added, and the specifically bound radioligand was measured after incubations of different durations (from 0 to 60 min), which were terminated by rapid filtration.
# [4] = target: T1, human 5-HT1AR stably expressed in HEK293 cells; test: Saturation binding of [3H]-8-OH-DPAT in the absence and presence of Zn; details: Zn vs [3H]-8-OH-DPAT, nonlinear regression of saturation data, equation 1
# Procedure: as §1, §2
# The incubation buffer consisted of 50 mM Tris–HCl (pH 7.7), 10 mM MgCl2, 10 mM pargyline and 0.1 % ascorbic acid. Radioligand binding assays were performed by incubating 30 μg of protein of the membrane suspension in 96-well microtitre plates for 60 min at room temperature with shaking, in a total volume of 200 μl. The binding reactions were stopped by filtration through GF/C Unifilter plates using a harvester (PerkinElmer). The plate filters were dried, and 20 μl of Ultima Gold MV (PerkinElmer) was added. Radioactivity was measured using a MicroBeta TriLux counter (PerkinElmer).
# All experiments were performed in triplicate, and the results were obtained from at least three independent experiments. The data are expressed as the mean±S.D. (standard deviation). The experimental data were analysed using GraphPad Prism 5.1 for Windows (GraphPad Software, San Diego California USA, www.graphpad.com).
compound,measurement,setting,value
"[Zn+2] [Zn, Zinc]",Zn concentrations that depressed the 5-HT-induced response,5-HT3 receptor; high concentrations,30 to 200 µM
same,Zn concentrations that enhanced the 5-HT-induced response,5-HT3 receptor; low concentrations,0.3 to 10 µM
same,immobility time in the FST,"Sprague Dawley rats; Zn 1 mg/kg, 30 min before test (Fig. 5a)",not 1 mg/kg significantly decreased the immobility time
same,immobility time in the FST,"Sprague Dawley rats; Zn 2 mg/kg, 30 min before test (Fig. 5a)",significantly decreased the immobility time
same,immobility time in the FST,Sprague Dawley rats; Zn 2 and 5 mg/kg (Fig. 5b),significantly decreased the immobility time
same,immobility time in the FST,"Sprague Dawley rats; Zn given jointly with 8-OH-DPAT at doses ineffective alone, vs VEH",significantly decreased the immobility time
same,decrease in the immobility time,"[1]; 5-HT1A autoreceptor KO mice, vs VEH-treated KO mice",30%
same,immobility time in the FST,[1]; wild-type mice,significant decrease in immobility time
same,increase of [3H]-8-OH-DPAT specific binding,"[2]; 10 μM of Zn, bell-shaped titration curve",~ 25%
same,effect on [3H]-8-OH-DPAT specific binding,[2]; Zn at >100 μM,inhibition
same,effect on association rate of [3H]-8-OH-DPAT,[3]; 10 μM of Zn ions,small increase in the association rate
same,effect on association rate of [3H]-8-OH-DPAT,[3]; 500 μM Zn,no effect on the kon values
same,effect on dissociation rate of [3H]-8-OH-DPAT,[3]; high Zn concentration (500 μM),both phases were significantly reduced
same,effect on dissociation rate of [3H]-8-OH-DPAT,[3]; low Zn concentration (10 μM),disappearance of the fast radioligand dissociation rate
same,cooperativity factor α,[4],0.37

# From publication PMC5104769, “Concentration-Dependent Dual Mode of Zn Action at Serotonin 5-HT1A Receptors: In Vitro and In Vivo Studies” (Molecular neurobiology, 2015)
